Test results taken from patent US6914045B2, “Glycopeptide antibiotics” (Wyeth Holdings Corporation, priority 2001, dated 2005).
In brackets after ≈: the same amount, converted by molar mass.

Legend:
Test in all cases: in vitro antibacterial evaluation, MIC by broth dilution
Format in all cases: cell-based
Staphylococcus sp. = details: broth dilution, 18 hours at 35° C.
Procedure, shortened: (§1)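 Test organisms, which included recent clinical isolates resistant to methicillin, penicillin and/or vancomycin, were inoculated at 5×10^5 CFU/mL into Muller-Hinton II […] containing antibiotic at 64-0.06 μg/mL. Minimum inhibitory concentrations were then read as the lowest level inhibiting growth.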

Escherichia coli = details: 18 hours at 35° C.
Procedure, shortened: as §1

Enterococcus sp. = details: broth dilution, 18 hours at 35° C.
Procedure, shortened: as §1

Streptococcus sp. = details: broth dilution, 18 hours at 35° C.
Procedure, shortened: as §1

MIC Coagulase Negative Staphylococcus (GC 4547) (Staphylococcus sp.): 8 µg/mL (≈ 5.16 µM)
MIC Coagulase Negative Staphylococcus (GC 4548) (Staphylococcus sp.): 4 µg/mL (≈ 2.58 µM)
MIC Coagulase Negative Staphylococcus (GC 4549) (Staphylococcus sp.): 4 µg/mL (≈ 2.58 µM)
MIC Coagulase Negative Staphylococcus (GC 4551) (Staphylococcus sp.): 8 µg/mL (≈ 5.16 µM)
MIC Staphylococcus aureus (ATCC 29213) (Staphylococcus sp.): 8 µg/mL (≈ 5.16 µM)
MIC Staphylococcus aureus (GC 1131) (Staphylococcus sp.): 8 µg/mL (≈ 5.16 µM)
MIC Staphylococcus aureus (GC 3051) (Staphylococcus sp.): 8 µg/mL (≈ 5.16 µM)
MIC Staphylococcus aureus (GC 3053) (Staphylococcus sp.): 8 µg/mL (≈ 5.16 µM)
MIC Staphylococcus aureus (GC 4541) (Staphylococcus sp.): 16 µg/mL (≈ 10.3 µM)
MIC Staphylococcus aureus (GC 4542) (Staphylococcus sp.): 8 µg/mL (≈ 5.16 µM)
MIC Staphylococcus aureus (GC 4544) (Staphylococcus sp.): 16 µg/mL (≈ 10.3 µM)
MIC Staphylococcus aureus (GC 4545) (Staphylococcus sp.): 8 µg/mL (≈ 5.16 µM)
MIC Staphylococcus aureus-SMITH (GC 4543) (Staphylococcus sp.): 8 µg/mL (≈ 5.16 µM)
MIC Coagulase Negative Staphylococcus (GC 4547) (Staphylococcus sp.; strain GC 4547): 8 µg/mL (≈ 5.16 µM)
MIC Coagulase Negative Staphylococcus (GC 4548) (Staphylococcus sp.; strain GC 4548): 4 µg/mL (≈ 2.58 µM)
MIC Coagulase Negative Staphylococcus (GC 4549) (Staphylococcus sp.; strain GC 4549): 4 µg/mL (≈ 2.58 µM)
MIC Coagulase Negative Staphylococcus (GC 4551) (Staphylococcus sp.; strain GC 4551): 8 µg/mL (≈ 5.16 µM)
MIC Staphylococcus aureus-SMITH (GC 4543) (Staphylococcus sp.; strain SMITH GC 4543): 8 µg/mL (≈ 5.16 µM)
MIC Staphylococcus aureus (ATCC 29213) (Staphylococcus sp.; strain ATCC 29213): 8 µg/mL (≈ 5.16 µM)
MIC Staphylococcus aureus (GC 1131) (Staphylococcus sp.; strain GC 1131): 8 µg/mL (≈ 5.16 µM)
MIC Staphylococcus aureus (GC 3051) (Staphylococcus sp.; strain GC 3051): 8 µg/mL (≈ 5.16 µM)
MIC Staphylococcus aureus (GC 3053) (Staphylococcus sp.; strain GC 3053): 8 µg/mL (≈ 5.16 µM)
MIC Staphylococcus aureus (GC 4541) (Staphylococcus sp.; strain GC 4541): 16 µg/mL (≈ 10.3 µM)
MIC Staphylococcus aureus (GC 4542) (Staphylococcus sp.; strain GC 4542): 8 µg/mL (≈ 5.16 µM)
MIC Staphylococcus aureus (GC 4544) (Staphylococcus sp.; strain GC 4544): 16 µg/mL (≈ 10.3 µM)
MIC Staphylococcus aureus (GC 4545) (Staphylococcus sp.; strain GC 4545): 8 µg/mL (≈ 5.16 µM)
MIC Escherichia coli (ATCC 25922) (Escherichia coli; strain ATCC 25922): 64 µg/mL (≈ 41.2 µM)
MIC Escherichia coli (GC 4559) (Escherichia coli; strain GC 4559): 32 µg/mL (≈ 20.6 µM)
MIC Escherichia coli (GC 4560) (Escherichia coli; strain GC 4560): 8 µg/mL (≈ 5.16 µM)
MIC Enterococcus avium (GC 4558) (Enterococcus sp.; Enterococcus avium (GC 4558)): 4 µg/mL (≈ 2.58 µM)
MIC Enterococcus faecalis (ATCC 29212) (Enterococcus sp.; Enterococcus faecalis (ATCC 29212)): 8 µg/mL (≈ 5.16 µM)
MIC Enterococcus faecalis (GC 2242) (Enterococcus sp.; Enterococcus faecalis (GC 2242)): 8 µg/mL (≈ 5.16 µM)
MIC Enterococcus faecalis (GC 2691) (Enterococcus sp.; Enterococcus faecalis (GC 2691)): 16 µg/mL (≈ 10.3 µM)
MIC Enterococcus faecalis (GC 3059) (Enterococcus sp.; Enterococcus faecalis (GC 3059)): 16 µg/mL (≈ 10.3 µM)
MIC Enterococcus faecalis (GC 4552) (Enterococcus sp.; Enterococcus faecalis (GC 4552)): 8 µg/mL (≈ 5.16 µM)
MIC Enterococcus faecalis (GC 4553) (Enterococcus sp.; Enterococcus faecalis (GC 4553)): 8 µg/mL (≈ 5.16 µM)
MIC Enterococcus faecalis (GC 4554) (Enterococcus sp.; Enterococcus faecalis (GC 4554)): 16 µg/mL (≈ 10.3 µM)
MIC Enterococcus faecalis (GC 6189) (Enterococcus sp.; Enterococcus faecalis (GC 6189)): 8 µg/mL (≈ 5.16 µM)
MIC Enterococcus faecium (GC 2243) (Enterococcus sp.; Enterococcus faecium (GC 2243)): 8 µg/mL (≈ 5.16 µM)
MIC Enterococcus faecium (GC 4556) (Enterococcus sp.; Enterococcus faecium (GC 4556)): 8 µg/mL (≈ 5.16 µM)
MIC Enterococcus faecium (GC 4557) (Enterococcus sp.; Enterococcus faecium (GC 4557)): 4 µg/mL (≈ 2.58 µM)
MIC Enterococcus faecalis (ATCC 29212) (Enterococcus sp.; strain ATCC 29212): 8 µg/mL (≈ 5.16 µM)
MIC Enterococcus faecalis (GC 2242) (Enterococcus sp.; strain GC 2242): 8 µg/mL (≈ 5.16 µM)
MIC Enterococcus faecium (GC 2243) (Enterococcus sp.; strain GC 2243): 8 µg/mL (≈ 5.16 µM)
MIC Enterococcus faecalis (GC 2691) (Enterococcus sp.; strain GC 2691): 16 µg/mL (≈ 10.3 µM)
MIC Enterococcus faecalis (GC 3059) (Enterococcus sp.; strain GC 3059): 16 µg/mL (≈ 10.3 µM)
MIC Enterococcus faecalis (GC 4552) (Enterococcus sp.; strain GC 4552): 8 µg/mL (≈ 5.16 µM)
MIC Enterococcus faecalis (GC 4553) (Enterococcus sp.; strain GC 4553): 8 µg/mL (≈ 5.16 µM)
MIC Enterococcus faecalis (GC 4554) (Enterococcus sp.; strain GC 4554): 16 µg/mL (≈ 10.3 µM)
MIC Enterococcus faecium (GC 4556) (Enterococcus sp.; strain GC 4556): 8 µg/mL (≈ 5.16 µM)
MIC Enterococcus faecium (GC 4557) (Enterococcus sp.; strain GC 4557): 4 µg/mL (≈ 2.58 µM)
MIC Enterococcus avium (GC 4558) (Enterococcus sp.; strain GC 4558): 4 µg/mL (≈ 2.58 µM)
MIC Enterococcus faecalis (GC 6189) (Enterococcus sp.; strain GC 6189): 8 µg/mL (≈ 5.16 µM)
MIC Streptococcus agalactiae (GC 4564) (Streptococcus sp.; Streptococcus agalactiae (GC 4564)): 0.5 µg/mL (≈ 0.322 µM)
MIC Streptococcus pneumoniae (ATCC 6301) (Streptococcus sp.; Streptococcus pneumoniae (ATCC 6301)): 0.5 µg/mL (≈ 0.322 µM)
MIC Streptococcus pneumoniae (GC 1894) (Streptococcus sp.; Streptococcus pneumoniae (GC 1894)): <0.12 µg/mL
MIC Streptococcus pneumoniae (GC 4565) (Streptococcus sp.; Streptococcus pneumoniae (GC 4565)): 0.5 µg/mL (≈ 0.322 µM)
MIC Streptococcus pyogenes (GC 4563) (Streptococcus sp.; Streptococcus pyogenes (GC 4563)): 0.5 µg/mL (≈ 0.322 µM)
MIC Streptococcus pneumoniae (ATCC 6301) (Streptococcus sp.; strain ATCC 6301): 0.5 µg/mL (≈ 0.322 µM)
MIC Streptococcus pneumoniae (GC 1894) (Streptococcus sp.; strain GC 1894): <0.12 µg/mL
MIC Streptococcus pyogenes (GC 4563) (Streptococcus sp.; strain GC 4563): 0.5 µg/mL (≈ 0.322 µM)
MIC Streptococcus agalactiae (GC 4564) (Streptococcus sp.; strain GC 4564): 0.5 µg/mL (≈ 0.322 µM)
MIC Streptococcus pneumoniae (GC 4565) (Streptococcus sp.; strain GC 4565): 0.5 µg/mL (≈ 0.322 µM)
SMILES: N=C1NCC(C(O)C2NC(=O)C(Cc3ccc(OC4OC(CO)C(OC5OC6COC7(OC6C6OC8(OC56)C5CC6CC(C5)CC8C6)C5CC6CC(C5)CC7C6)C(O)C4O)cc3)NC(=O)C(CC3CCCCC3)NC(=O)CNC(=O)C(CO)NC(=O)C(C(O)C3CNC(=N)N3C3OC(CO)C(O)C(O)C3O)NC2=O)N1 (centres unmarked) [Example 106b, Cyclo[3-cyclohexylalanyl-O-[4-O-[2,3:4,6-di-O-(2-adamantylidene)hexopyranosyl]hexopyranosyl]tyrosyl-3-(2-iminoimidazolidin-4-yl)seryl-3-(3-hexopyranosyl-2-iminoimidazolidin-4-yl)-serylserylglycyl]]
MIC Staphylococcus haemolyticus (GC 4546) (Staphylococcus sp.): 4 µg/mL (≈ 2.58 µM)
MIC Staphylococcus haemolyticus (GC 4546) (Staphylococcus sp.; strain GC 4546): 4 µg/mL (≈ 2.58 µM)
